Results reported in the NIST ThermoML archive (doi:10.1021/je9010097).
Numbers after ± are expanded uncertainties.

Test: excess molar enthalpy (molar enthalpy of mixing); xn = mol fraction of the nth substance listed
Details: 308.15 K, 101 kPa, Liquid, Flow calorimetry

C1COCCN1 [tetrahydro-1,4-oxazine] + C1CCCCC1
Details | excess molar enthalpy [kcal/mol]
x2 = 0.1 | 0.146 ± 0.00502
x2 = 0.201 | 0.261 ± 0.00837
x2 = 0.3 | 0.354 ± 0.011
x2 = 0.401 | 0.418 ± 0.0129
x2 = 0.5 | 0.446 ± 0.0139
x2 = 0.6 | 0.436 ± 0.0134
x2 = 0.7 | 0.392 ± 0.0122
x2 = 0.801 | 0.312 ± 0.0098
x2 = 0.9 | 0.195 ± 0.00645

C1COCCN1 [tetrahydro-1,4-oxazine] + C1CCOCC1
Details | excess molar enthalpy [kcal/mol]
x2 = 0.101 | 0.039 ± 0.00143
x2 = 0.199 | 0.0703 ± 0.00239
x2 = 0.3 | 0.0946 ± 0.00311
x2 = 0.401 | 0.109 ± 0.00335
x2 = 0.501 | 0.115 ± 0.00359
x2 = 0.6 | 0.11 ± 0.00335
x2 = 0.702 | 0.0963 ± 0.00311
x2 = 0.8 | 0.0731 ± 0.00239
x2 = 0.899 | 0.0411 ± 0.00143

C1COCCN1 [tetrahydro-1,4-oxazine] + C1COCCO1
Details | excess molar enthalpy [kcal/mol]
x2 = 0.108 | 0.0296 ± 0.000956
x2 = 0.201 | 0.0507 ± 0.00167
x2 = 0.303 | 0.0681 ± 0.00215
x2 = 0.403 | 0.0772 ± 0.00239
x2 = 0.506 | 0.0791 ± 0.00239
x2 = 0.6 | 0.0753 ± 0.00239
x2 = 0.703 | 0.0645 ± 0.00215
x2 = 0.803 | 0.0495 ± 0.00167
x2 = 0.905 | 0.0272 ± 0.000956
